Measured values reported in patent US11345711B2, “8,9-dihydroimidazo[1,2-a]pyrimido[5,4-e]pyrimidin-5(6H)-ones” (IMPACT THERAPEUTICS (SHANGHAI), INC, priority 2016, dated 2022).
pIC50: −log10 of the molar value. Where two headings read alike, the source gives them in different places.

Columns and labels:
[1] = tested on: LoVo cells; assay: MTT based cell viability assay on LoVo cells; conditions: Homo sapiens, LoVo, 72 h, 3 d, read-out: IC50, growth inhibition of LoVo cells
Outline: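 Inhibition of LoVo proliferation was derived as IC50 from a sigmoidal dose-response fit of cell survival. Readout was MTT (0.5 mg/mL, 4 h) with absorbance at 552/630/690 nm, after 3-day treatment at 37 °C. Eight-point series from 10 μM to 0.01 μM, DMSO control, 1% DMSO final.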

[2] = tested on: NCI-H1299 cells; assay: MTT based cell viability assay on NCI-H1299 cells; conditions: Homo sapiens, read-out: IC50, growth inhibition of NCI-H1299 cells
Outline: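 Viability read-out was MTT reduction (0.5 mg/mL, 4 h, absorbance 552/630/690 nm) after 3-day compound exposure at 37 °C of NCI-H1299 cells seeded at 1000 per well. Dilutions spanned 10 μM–0.01 μM in DMSO, final DMSO 1‰. Survival-versus-concentration curves were fitted sigmoidally to give IC50.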

[3] = target: Wee1 (h) (Homo sapiens, UniProt P30291); assay: Wee1 kinase (h) detection method, [γ-33P]-ATP filter assay; assay type: biochemical
Chain of Wee1 (h) (P30291 whole entry): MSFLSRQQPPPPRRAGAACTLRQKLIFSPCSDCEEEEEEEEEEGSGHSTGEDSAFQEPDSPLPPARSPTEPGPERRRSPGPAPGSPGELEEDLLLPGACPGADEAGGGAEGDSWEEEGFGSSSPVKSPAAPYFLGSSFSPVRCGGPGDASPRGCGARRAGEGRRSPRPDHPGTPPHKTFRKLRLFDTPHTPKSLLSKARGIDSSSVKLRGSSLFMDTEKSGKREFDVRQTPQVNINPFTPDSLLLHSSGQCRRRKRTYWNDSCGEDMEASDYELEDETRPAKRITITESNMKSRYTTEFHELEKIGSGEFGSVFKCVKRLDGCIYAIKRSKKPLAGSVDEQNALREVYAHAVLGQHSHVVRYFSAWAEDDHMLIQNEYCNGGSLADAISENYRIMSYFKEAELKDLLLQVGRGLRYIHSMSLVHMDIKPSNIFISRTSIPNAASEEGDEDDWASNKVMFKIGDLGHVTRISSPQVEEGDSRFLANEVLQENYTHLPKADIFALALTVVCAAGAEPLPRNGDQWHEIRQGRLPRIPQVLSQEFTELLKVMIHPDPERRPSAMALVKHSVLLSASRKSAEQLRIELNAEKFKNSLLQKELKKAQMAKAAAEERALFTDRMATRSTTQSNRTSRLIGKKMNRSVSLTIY

pIC50 [1]	pIC50 ([2]; NCI-H1299 cells)	Inh. (%) of Wee1 kinase enzyme activity ([3]; C 0.01 μm compound) [%]	Inh. (%) of Wee1 kinase enzyme activity ([3]; C 0.1 μm compound) [%]	Inh. (%) of Wee1 kinase enzyme activity ([3]; C 1 μm compound) [%]	pIC50 ([2]; NCI-H1299, NCI-H1299 cells)	Structure (SMILES)
6.08	< 5.00	19	69	94		C[C@@H]1CN(c2ccc(Nc3ncc4c(n3)N3CCN=C3N(c3c(F)cccc3Cl)C4=O)cc2)C[C@H](C)O1 [Example 32, 6-(2-Chloro-6-fluorophenyl)-2-((4-((2S,6R)-2,6-dimethylmorpholino)phenyl)amino)-8,9-dihydroimidazo[1,2-a]pyrimido[5,4-e]pyrimidin-5(6H)-one]
< 4.00	< 5.00			6		C[C@@H]1CN(c2ccc(Nc3ncc4c(n3)N3CCN=C3N(c3c(Cl)cccc3Cl)C4=O)c(C(F)(F)F)c2)C[C@H](C)N1C [Example 68, 6-(2,6-Dichlorophenyl)-2-((2-trifluoromethyl-4-((3S,5R)-3,4,5-trimethylpiperazin-1-yl)phenyl)amino)-8,9-dihydroimidazo[1,2-a]pyrimido[5,4-e]pyrimidin-5(6H)-one]
7.31		22	74	97	6.70	Cc1cc(Nc2ncc3c(n2)N2CCN=C2N(c2c(Cl)cccc2Cl)C3=O)ccc1N1CCN(C(C)C)CC1 [Example 76, 6-(2,6-Dichlorophenyl)-2-((4-(4-isopropylpiperazin-1-yl)-3-methylphenyl)amino)-8,9-dihydroimidazo[1,2-a]pyrimido[5,4-e]pyrimidin-5(6H)-one]
6.27				80	6.01	Cc1cc(Nc2ncc3c(n2)N2CCN=C2N(c2c(Cl)cccc2C(F)(F)F)C3=O)ccc1N1CCN(C)CC1 [Example 80, 6-(2-Chloro-6-(trifluoromethyl)phenyl)-2-((3-methyl-4-(4-methylpiperazin-1-yl)phenyl)amino)-8,9-dihydroimidazo[1,2-a]pyrimido[5,4-e]pyrimidin-5(6H)-one]
7.23		27	84	95	6.98	Cc1cc(Nc2ncc3c(n2)N2CCN=C2N(c2c(Cl)cccc2Cl)C3=O)cc(C)c1N1CCN(C)CC1 [Example 158, 6-(2,6-Dichlorophenyl)-2-((3,5-dimethyl-4-(4-methylpiperazin-1-yl)phenyl)amino)-8,9-dihydroimidazo[1,2-a]pyrimido[5,4-e]pyrimidin-5(6H)-one]
6.74		15	61	98	6.15	C[C@@H]1CN(c2ccc(Nc3ncc4c(n3)N3CCN=C3N(c3c(Cl)cccc3Cl)C4=O)cc2C(F)(F)F)C[C@H](C)N1C [Example 74, 6-(2,6-Dichlorophenyl)-2-((3-trifluoromethyl-4-((3S,5R)-3,4,5-trimethylpiperazin-1-yl)phenyl)amino)-8,9-dihydroimidazo[1,2-a]pyrimido[5,4-e]pyrimidin-5(6H)-one]
6.08	6.04			96		CN(C)CCCN(C)c1ccc(Nc2ncc3c(n2)N2CCN=C2N(c2c(F)cccc2Cl)C3=O)cc1 [Example 111, 6-(2-Chloro-6-fluorophenyl)-2-((4-((3-(dimethylamino)propyl)(methyl)amino)phenyl)amino)-8,9-dihydroimidazo[1,2-a]pyrimido[5,4-e]pyrimidin-5(6H)-one]
< 4.00	< 5.00			19		Cc1cc(N2CCN(C)CC2)ccc1Nc1ncc2c(n1)N1CCN=C1N(c1c(F)cccc1Cl)C2=O [Example 42, 6-(2-Chloro-6-fluorophenyl)-2-((2-methyl-4-(4-methylpiperazin-1-yl)phenyl)amino)-8,9-dihydroimidazo[1,2-a]pyrimido[5,4-e]pyrimidin-5(6H)-one]
